Assay results taken from US8158657B2, “Heterocycles substituted pyridine derivatives and antifungal agent containing thereof” (Eisai R&D Management Co., Ltd., priority 2005, dated 2012).
Values after ≈ are worked out from the molar mass of the structure shown.

Experiments:
[1] = system: C. albicans CAF2-1 strain; experiment: Anti-Candida activity, MIC measurement; type: cell-based; conditions: CAF21STRAIN, C. albicans CAF2-1, RPMI1640, 42-48 hours at 35° C., visual inspection, read-out: Anti-Candida Activity (minimum inhibitory concentration, MIC)
Protocol: (§1) For the C. albicans CAF2-1 strain, a fungal suspension from a standing culture for 48 hours at 30° C. in a Sabouraud dextrose liquid culture medium (SDB) was diluted with RPMI1640 medium to adjust a fungal suspension of 1.2×10^3 cells/mL. For the A. fumigatus Tsukuba strain, −80° C. stored strain was diluted with RPMI1640 medium to adjust to a fungal suspension of 4.5×10^3 cells/mL.
(§2) Using a U-bottomed 96 well plate, 8 samples/plate (A to H) of sample dilution solutions were prepared. On the 2nd to 12th rows were dispensed 10 μL of dimethyl sulfoxide solution. Weighted sample was dissolved in dimethyl sulfoxide to prepare a 2.5 mg/mL solution, 20 μL of this solution was added to the first row of the prepared plate, and 12 steps of two-fold step dilutions (10 μL of solution+10 μL of dimethyl sulfoxide solution) were performed on the plate. This sample dilution solution was dispensed in the amount of 1 μL to a flat-bottomed 96 well plate for MIC measurement to prepare a sample dilution plate.
(§3) The fungal suspension prepared in (1) was used in the amount of 99 μL/well to inoculate the flat-bottomed 96 well plate containing 1 μL/well of the test compound dilution prepared in (2), and a standing culture was carried out aerobically for 42-48 hours at 35° C.

[2] = system: A. fumigatus Tsukuba strain; experiment: Anti-Aspergillus activity, MIC measurement; type: cell-based; conditions: RPMI1640, 42-48 hours at 35° C., visual inspection, read-out: Anti-Aspergillus Activity (minimum inhibitory concentration, MIC)
Protocol: as §1, §2, §3

SMILES	MIC [1] [µg/mL]	MIC [2] [µg/mL]
Cc1cccc(OCc2ccc(Cc3cc(-c4cccnc4N)on3)cc2)n1 [Example 3, 3-(3-(4-(6-Methyl-pyridin-2-yloxymethyl)-benzyl)-isoxazol-5-yl)-pyridin-2-ylamine]	0.1 (≈ 0.269 µM)	0.78 (≈ 2.09 µM)
CCCCOCc1ccc(Cc2cc(-c3cccnc3N)on2)cc1 [Example 4, 3-(3-(4-Butoxymethyl-benzyl)-isoxazol-5-yl)-pyridin-2-ylamine]	0.2 (≈ 0.593 µM)	0.39 (≈ 1.16 µM)
Nc1ncccc1-c1cc(Cc2ccc(OCc3ccccc3F)cc2)no1 [Example 5, 3-(3-(4-(2-Fluoro-benzyloxy)-benzyl)-isoxazol-5-yl)-pyridin-2-ylamine]	0.39 (≈ 1.04 µM)	0.39 (≈ 1.04 µM)
Nc1ncccc1-c1cc(Cc2ccc(OCc3cccc(F)c3)cc2)no1 [Example 6, 3-(3-(4-(3-Fluoro-benzyloxy)-benzyl)-isoxazol-5-yl)-pyridin-2-ylamine]	0.39 (≈ 1.04 µM)	0.39 (≈ 1.04 µM)
Nc1ncccc1-c1cc(Cc2ccc(OCc3ccc(F)cc3)cc2)no1 [Example 7, 3-(3-(4-(4-Fluoro-benzyloxy)-benzyl)-isoxazol-5-yl)-pyridin-2-ylamine]	1.56 (≈ 4.16 µM)	0.2 (≈ 0.533 µM)
Nc1ncccc1-c1cc(Cc2ccc(OCC3CC3)cc2)no1 [Example 8, 3-(3-(4-Cyclopropylmethoxy-benzyl)-isoxazol-5-yl)-pyridin-2-ylamine]	1.56 (≈ 4.85 µM)	0.78 (≈ 2.43 µM)
Cc1cccc(COc2ccc(Cc3cc(-c4cccnc4N)on3)cc2)n1 [Example 10, 3-(3-(4-(6-Methyl-pyridin-2-ylmethoxy)-benzyl)-isoxazol-5-yl)-pyridin-2-ylamine]	0.39 (≈ 1.05 µM)	0.78 (≈ 2.09 µM)
Nc1ccc(-c2cc(Cc3ccc(OCc4ccccc4F)cc3)no2)c(N)n1 [Example 18, 3-(3-(4-(2-Fluoro-benzyloxy)-benzyl)-isoxazol-5-yl)-pyridin-2,6-diamine]	1.56 (≈ 4 µM)	0.78 (≈ 2 µM)
Nc1ccc(-c2cc(Cc3ccc(OCc4cccc(F)c4)cc3)no2)c(N)n1 [Example 19, 3-(3-(4-(3-Fluoro-benzyloxy)-benzyl)-isoxazol-5-yl)-pyridin-2,6-diamine]	0.78 (≈ 2 µM)	0.39 (≈ 0.999 µM)
Nc1ccc(-c2cc(Cc3ccc(OCc4ccc(F)cc4)cc3)no2)c(N)n1 [Example 20, 3-(3-(4-(4-Fluoro-benzyloxy)-benzyl)-isoxazol-5-yl)-pyridin-2,6-diamine]	0.78 (≈ 2 µM)	0.2 (≈ 0.512 µM)
Nc1ccc(-c2cc(Cc3ccc(OCC4CC4)cc3)no2)c(N)n1 [Example 21, 3-(3-(4-Cyclopropylmethoxy-benzyl)-isoxazol-5-yl)-pyridin-2,6-diamine]	1.56 (≈ 4.64 µM)	0.78 (≈ 2.32 µM)
Nc1ccc(-c2cc(Cc3ccc(OCc4ccccn4)cc3)no2)c(N)n1 [Example 22, 3-(3-(4-(Pyridin-2-ylmethoxy)-benzyl)-isoxazol-5-yl)-pyridin-2,6-diamine]	0.2 (≈ 0.536 µM)	0.39 (≈ 1.04 µM)
Cc1cccc(COc2ccc(Cc3cc(-c4ccc(N)nc4N)on3)cc2)n1 [Example 23, 3-(3-(4-(6-Methyl-pyridin-2-ylmethoxy)-benzyl)-isoxazol-5-yl)-pyridin-2,6-diamine]	0.78 (≈ 2.01 µM)	1.56 (≈ 4.03 µM)
COCc1ccc(-c2cc(Cc3ccc(OCc4ccccc4)cc3)no2)c(N)n1 [Example 26, 3-(3-(4-Benzyloxy-benzyl)-isoxazol-5-yl)-6-methoxymethyl-pyridin-2-ylamine]	0.78 (≈ 1.94 µM)	0.78 (≈ 1.94 µM)
Nc1ccc(-c2cc(Cc3ccc(OCc4ccccc4)cc3)no2)cn1 [Example 28, 5-(3-(4-Benzyloxy-benzyl)-isoxazol-5-yl)-pyridin-2-ylamine]	> 25	0.39 (≈ 1.09 µM)
Nc1ncccc1-c1cnn(Cc2ccc(Oc3ccccc3)cc2)c1 [Example 34, 3-(1-(4-Phenoxy-benzyl)-1H-pyrazol-4-yl)-pyridin-2-ylamine]	0.78 (≈ 2.28 µM)	0.39 (≈ 1.14 µM)
Nc1ncccc1-c1cnn(Cc2cccc(Oc3ccccc3)c2)c1 [Example 35, 3-(1-(3-Phenoxy-benzyl)-1H-pyrazol-4-yl)-pyridin-2-ylamine]	0.2 (≈ 0.584 µM)	1.56 (≈ 4.56 µM)
Nc1ncccc1-n1cc(Cc2ccc(OCc3ccccc3)cc2)cn1 [Example 39, 3-(4-(4-Benzyloxy-benzyl)-pyrazol-1-yl)-pyridin-2-ylamine]	3.13 (≈ 8.78 µM)	3.13 (≈ 8.78 µM)
Cc1ccc(COc2ccc(Cc3cc(-c4cccnc4N)on3)cc2)nc1 [Example 42, 3-(3-(4-(5-Methyl-pyridin-2-ylmethoxy)-benzyl)-isoxazol-5-yl)-pyridin-2-ylamine]	0.78 (≈ 2.09 µM)	1.56 (≈ 4.19 µM)
Cc1ccc(OCc2ccc(Cc3cc(-c4cccnc4N)on3)cc2)nc1 [Example 44, 3-(3-(4-(5-Methyl-pyridin-2-yloxymethyl)-benzyl)-isoxazol-5-yl)-pyridin-2-ylamine]	1.56 (≈ 4.19 µM)	1.56 (≈ 4.19 µM)

SMILES	MIC [1] [µg/mL]	MIC [2] [µg/mL]
Cc1ccc(Cc2ccc(Cc3cc(-c4cccnc4N)on3)cc2)o1 [Example 46, 3-(3-(4-(5-Methyl-furan-2-ylmethyl)-benzyl)-isoxazol-5-yl)-pyridin-2-ylamine]	0.05 (≈ 0.145 µM)	0.2 (≈ 0.579 µM)
Cc1cc(COc2ccc(Cc3cc(-c4cccnc4N)on3)cc2)ccn1 [Example 47, 3-(3-(4-(2-Methyl-pyridin-4-ylmethoxy)-benzyl)-isoxazol-5-yl)-pyridin-2-ylamine]	0.2 (≈ 0.537 µM)	0.39 (≈ 1.05 µM)
Cc1ccc(Oc2ccc(Cc3cc(-c4cccnc4N)on3)s2)cc1 [Example 48, 3-(3-(5-p-Tolyloxy-thiophen-2-ylmethyl)-isoxazol-5-yl)-pyridin-2-ylamine]	0.39 (≈ 1.07 µM)	0.2 (≈ 0.55 µM)
Nc1ncccc1-c1cc(Cc2ccc(OCc3ccncc3)cc2)no1 [Example 49, 3-(3-(4-(Pyridin-4-ylmethoxy)-benzyl)-isoxazol-5-yl)-pyridin-2-ylamine]	0.05 (≈ 0.14 µM)	0.39 (≈ 1.09 µM)
Nc1ncccc1-c1cc(Cc2ccc(OCc3cccnc3)cc2)no1 [Example 50, 3-(3-(4-(Pyridin-3-ylmethoxy)-benzyl)-isoxazol-5-yl)-pyridin-2-ylamine]	0.78 (≈ 2.18 µM)	1.56 (≈ 4.35 µM)
Nc1ncccc1-c1cc(Cc2ccc(Oc3ccccc3)nc2)no1 [Example 53, 3-(3-(6-Phenoxy-pyridin-3-ylmethyl)-isoxazol-5-yl)-pyridin-2-ylamine]	0.2 (≈ 0.581 µM)	0.2 (≈ 0.581 µM)
Nc1ncccc1-c1cc(Cc2ccc(COc3ccc(F)cn3)cc2)no1 [Example 56]	1.56 (≈ 4.14 µM)	> 25
Nc1ncccc1-c1cc(Cc2ccn(Cc3ccccc3)c2)no1 [Example 57, 3-(3-(1-Benzyl-1H-pyrrol-3-ylmethyl)-isoxazol-5-yl)-pyridin-2-ylamine]	0.05 (≈ 0.151 µM)	0.2 (≈ 0.605 µM)
Nc1ncccc1-c1cc(Cc2ccc(COc3cc(F)ccn3)cc2)no1 [Example 59, 3-(3-(4-(4-Fluoro-pyridin-2-yloxymethyl)-benzyl)-isoxazol-5-yl)-pyridin-2-ylamine]	0.39 (≈ 1.04 µM)	0.39 (≈ 1.04 µM)
Nc1ncccc1-c1cc(Cc2cccc(OCc3ccccn3)c2)no1 [Example 60, 3-(3-(3-(Pyridin-2-ylmethoxy)-benzyl)-isoxazol-5-yl)-pyridin-2-ylamine]	0.2 (≈ 0.558 µM)	1.56 (≈ 4.35 µM)
Nc1ncccc1-c1cc(Cc2cccc(OCc3ccccc3)c2)no1 [Example 61, 3-(3-(3-Benzyloxy-benzyl)-isoxazol-5-yl)-pyridin-2-ylamine]	0.2 (≈ 0.56 µM)	0.39 (≈ 1.09 µM)
Nc1ncccc1-c1cc(Cc2ccc(OCc3ccc(Cl)cn3)cc2)no1 [Example 63, 3-(3-(4-(5-Chloro-pyridin-2-ylmethoxy)-benzyl)-isoxazol-5-yl)-pyridin-2-ylamine]	0.78 (≈ 1.99 µM)	0.78 (≈ 1.99 µM)
Nc1ncccc1-c1cc(Cc2cccc(Oc3ccccc3)c2)no1 [Example 64, 3-(3-(3-Phenoxy-benzyl)-isoxazol-5-yl)-pyridin-2-ylamine]	0.2 (≈ 0.582 µM)	0.78 (≈ 2.27 µM)
CCCCOc1cccc(Cc2cc(-c3cccnc3N)on2)c1 [Example 65, 3-(3-(3-Butoxy-benzyl)-isoxazol-5-yl)-pyridin-2-ylamine]	0.39 (≈ 1.21 µM)	0.78 (≈ 2.41 µM)
Nc1ncccc1-c1cc(Cc2cccc(OCC3CC3)c2)no1 [Example 66, 3-(3-(3-Cyclopropylmethoxy-benzyl)-isoxazol-5-yl)-pyridin-2-ylamine]	0.1 (≈ 0.311 µM)	0.78 (≈ 2.43 µM)
CCCCOc1ccc(Cc2cc(-c3cccnc3N)on2)cc1 [Example 67, 3-(3-(4-Butoxy-benzyl)-isoxazol-5-yl)-pyridin-2-ylamine]	1.56 (≈ 4.82 µM)	0.78 (≈ 2.41 µM)
Nc1ncccc1-c1cc(Cc2ccc(NCc3ccccc3)cc2)no1 [Example 68, 3-(3-(4-Benzylamino-benzyl)-isoxazol-5-yl)-pyridin-2-ylamine]	0.1 (≈ 0.281 µM)	0.39 (≈ 1.09 µM)
Nc1ncccc1-c1cc(Cc2ccc(Nc3ccccc3)cc2)no1 [Example 69, 3-(3-(4-Phenylamino-benzyl)-isoxazol-5-yl)-pyridin-2-ylamine]	0.1 (≈ 0.292 µM)	0.2 (≈ 0.584 µM)
CCCCc1ccc(Cc2cc(-c3cccnc3N)on2)cc1 [Example 70, 3-(3-(4-Butyl-benzyl)-isoxazol-5-yl)-pyridin-2-ylamine]	1.56 (≈ 5.07 µM)	0.39 (≈ 1.27 µM)
